Data published in article PMC6326523, “A high-throughput screen to identify novel small molecule inhibitors of the Werner Syndrome Helicase-Nuclease (WRN)” (PLoS ONE, 2019).

Tests used:
[1] = molecular target: T1, GST-WRN500-946 helicase fragment (Homo sapiens, UniProt Q14191); assay: Radiometric helicase assay with GST-WRN500-946 fragment (LOPAC hit validation); format: biochemical; settings: GST-WRN500-946 20 nM; FORKR 0.5 nM; increasing concentrations
T1 construct: made in house

HeLa 1.2.11 cells = assay: HeLa cell proliferation assay (WST-1); format: cell-based, human; settings: 50 μM, 3-day time course
Method: WRN inhibitors were diluted in DMSO to a concentration 100-fold higher than their final concentrations. U2-OS cells in culture were counted, spun down and resuspended to 35,000 cells/mL in DMEM with 10% FBS and Pen/Strep antibiotic. For each cell condition, 15 μL of DMSO or inhibitor was added to 1.5 ml of U2-OS cells in DMEM or DMEM alone. One hundred μL of each cell condition was plated in triplicate on each of four 96-well plates representing days 0–3. Ten μL of WST-1 cell proliferation reagent (Roche) was added to the day 0 plate and readings were taken 2 hr later using a plate reader set to 450 nm. WST-1 cell proliferation reagent was added to plates on days 1–3 and readings were taken after 2 hr incubation. Percent cell proliferation was normalized to cells in the presence of DMSO with the background OD450 of DMEM with each drug subtracted out. […]
Fig 9 Effects of WRN helicase inhibitors on cancer cell proliferation. (A) Cell proliferation of HeLa 1.2.11 cells treated with 50 μM NCGC00029283-03, NCGC00063279-03, NCGC00357377-01 and NSC 617145 (positive control) or vehicle (DMSO) on Day 0 and Day 3 as measured using the WST-1 cell proliferation reagent. […]

T1 sequence (Q14191 500-946): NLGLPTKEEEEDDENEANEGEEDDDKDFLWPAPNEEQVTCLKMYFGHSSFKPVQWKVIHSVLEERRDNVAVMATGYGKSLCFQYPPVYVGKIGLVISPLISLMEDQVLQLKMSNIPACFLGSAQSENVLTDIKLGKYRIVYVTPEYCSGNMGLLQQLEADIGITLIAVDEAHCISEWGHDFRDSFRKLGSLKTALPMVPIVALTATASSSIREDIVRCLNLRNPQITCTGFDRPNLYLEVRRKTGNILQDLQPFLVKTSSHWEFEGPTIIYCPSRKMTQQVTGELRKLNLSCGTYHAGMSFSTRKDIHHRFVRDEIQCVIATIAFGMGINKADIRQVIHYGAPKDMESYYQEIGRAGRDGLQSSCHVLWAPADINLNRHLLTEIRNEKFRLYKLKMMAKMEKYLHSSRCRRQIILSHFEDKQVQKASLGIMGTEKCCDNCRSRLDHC

SMILES | Inhibition of GST-WRN500-946 unwinding of radiolabeled FORKR [1] | Effect on HeLa 1.2.11 cell proliferation (HeLa 1.2.11 cells)
N#CSc1ccc2oc(C3=NCCN3)cc2c1 [NCGC00015168-04] | inhibition | –
COc1cc2nc(N3CCCN(C)CC3)nc(NC3CCN(Cc4ccccc4)CC3)c2cc1OC [NCGC00185850-03] | inhibition | –
CC(C)(CN1C(=O)C(Cl)=C(Cl)C1=O)CN1C(=O)C(Cl)=C(Cl)C1=O [NSC 617145, reference compound] | – | very potent inhibition
